According to patent US20080214456A1, “Lkktet and/or Lkktnt Peptide Compositions and Methods” (REGENERX BIOPHARMACEUTICALS, INC., priority 2005, published 2008):

How the values were obtained:
[1] = system: Human corneal epithelial cells; assay: BrdU incorporation cell proliferation assay in BAK-exposed corneal epithelial cells; format: cell-based
Procedure: (§1) Human corneal epithelial cells at approximately 80% confluence were treated with 0%, 0.001%, 0.01%, or 0.1% BAK for 15 minutes. After 3 and 24 hours of recovery in culture medium, cell proliferation was measured using a calorimetric BrdU incorporation assay. Apoptosis was measured using a calorimetric annexin-based cell death assay. […] To further assess the ability of Tb4 to prevent apoptosis, corneal epithelial cells were treated with 0.01% BAK±Tβ4 over a 5 day time course.

[2] = system: Human corneal epithelial cells; assay: annexin-based cell death (apoptosis) assay in BAK-exposed corneal epithelial cells
Procedure: as §1

[3] = 1 mcg/ml Tβ4, BAK-treated cells, 3 and 24 hour time points
[4] = 0.001%, 0.01% or 0.1% BAK for 15 minutes, 3 and 24 hours recovery

## Thymosin beta 4 (SDKPDMAEIEKFDKSKLKKTETQEKNPLPSKETIEQEKQAGES; Thymosin beta-4; UniProt P62328 2-44, looked up) [Tβ4]
[1]; [3]
  cell proliferation of BAK-treated cells in presence of Tβ4: not promoted
[2]; 0.01% BAK ± Tβ4, longer times in culture (2 to 5 days)
  BAK-initiated epithelial cell apoptosis: significantly inhibited
[2]; [3]
  apoptosis of BAK-treated cells in presence of Tβ4: not inhibited
[2]; 5 days in culture, no BAK comparison (medium alone)
  apoptosis compared to cells cultured in medium alone: decreased apoptosis

## benzalkonium chloride [BAK, reference compound]
[1]; [4]
  corneal epithelial cell proliferation compared to control: inhibited
[2]; [4]
  apoptosis compared to control: increased
